Data from patent publication US12435044B2, “Pyridazinone herbicides and pyridazinone intermediates used to prepare a herbicide” (FMC Corporation, priority 2018, dated 2025).

Key:
Type in all cases: in vivo
[1] = system: Canada thistle (Cirsium arvense); assay: Test D postemergence controlled growth environment test
Description: (§1) Seeds of plant species selected from blackgrass (Alopecurus myosuroides), galium (catchweed bedstraw, Galium aparine), kochia (Kochia scoparia), oilseed rape (Brassica napus), barley, spring (Hordeum vulgare), wheat, spring (Triticum aestivum), oat, wild (Avena fatua), barley, winter (Hordeum vulgare) and wheat, winter (Triticum aestivum) were planted into a silt loam soil and treated preemergence with test chemicals formulated in a non-phytotoxic solvent mixture which included a surfactant.
(§2) At the same time, plants selected from these crop and weed species and also bluegrass (annual bluegrass, Poa annua), canarygrass (littleseed canarygrass, Phalaris minor), chickweed (common chickweed, Stellaria media), bromegrass, downy (downy bromegrass, Bromus tectorum), field poppy (Papaver rhoeas), field violet (Viola arvensis), foxtail, green (Setaria viridis), deadnettle (henbit deadnettle, Lamium amplexicaule), ryegrass, Italian (Lolium multiflorum), lambsquarters (Chenopodium album), pigweed (Amaranthus retroflexus), chamomile (scentless chamomile, Matricaria inodora), Russian thistle (Salsola kali), speedwell (bird's-eye speedwell, Veronica persica), buckwheat, wild (Polygonum convolvulus), mustard, wild (Sinapis arvensis), radish, wild (Raphanus raphanistrum), windgrass (Apera spica-venti), geranium, cutleaf (Geranium dissectum) and Canada thistle (Cirsium arvense) were planted in pots containing Redi-Earth® planting medium (Scotts Company, 14111 Scottslawn Road, Marysville, Ohio 43041) comprising spaghnum peat moss, vermiculite, wetting agent and starter nutrients and treated with postemergence applications of the test chemicals formulated in the same manner. Plants ranged in height from 2 to 18 cm (1- to 4-leaf stage). Treated plants and controls were maintained in a controlled growth environment for 14 to 21 d after which time all species were compared to controls and visually evaluated. Plant response ratings, summarized in Table D, are based on a scale of 0 to 100 where 0 is no effect and 100 is complete control. A dash (-) response means no test result.

[2] = system: canarygrass (littleseed canarygrass, Phalaris minor); assay: as above
Description: as §1, §2

[3] = system: chickweed (common chickweed, Stellaria media); assay: as above
Description: as §1, §2

[4] = system: geranium, cutleaf (Geranium dissectum); assay: as above
Description: as §1, §2

[5] = system: lambsquarters (Chenopodium album); assay: as above
Description: as §1, §2

[6] = system: radish, wild (Raphanus raphanistrum); assay: as above
Description: as §1, §2

[7] = system: ryegrass, Italian (Lolium multiflorum); assay: as above
Description: as §1, §2

[8] = system: corn (ZEAMD; Zea mays, cv. ‘Pioneer 1184’); assay: Test I pre-/postemergence, mixtures of Cpd. No. 20 with saflufenacil or pyroxasulfone; conditions: for Plant response rating (0 to 100 scale): ZEAMD
Description: (§3) This test evaluated the effect of mixtures of Cpd. No. 20 with saflufenacil or pyroxasulfone on several plant species. Seeds of plant species selected from corn (ZEAMD; Zea mays, cv. ‘Pioneer 1184’), soybean (GLXMA; Glycine max, cv. Pioneer 35T58), giant foxtail (SETFA; Setaria faberi), palmer amaranth (AMAPA; Amaranthus palmeri), common waterhemp (AMATU; Amaranthus rudis), mare's tail (ERICA; Conyza canadensis), and common ragweed (AMBEL; Ambrosia artemisiifolia) were planted in pots containing Tama Silt Loam soil and treated preemergence with a directed soil spray using test chemicals formulated in a non-phytotoxic solvent mixture which included a surfactant.
(§4) At the same time, plants selected from these crop and weed species were planted in pots containing Redi-Earth® planting medium (Scotts Company, 14111 Scottslawn Road, Marysville, Ohio 43041) comprising spaghnum peat moss, vermiculite, wetting agent and starter nutrients and treated postemergence with test chemicals formulated in the same manner. Plants ranged in height from 2 to 10 cm and were in the one- to two-leaf stage for the postemergence treatment. Treated plants and untreated controls were maintained in a greenhouse for approximately 14-21 d, after which time all treated plants were compared to untreated controls and visually evaluated for injury. Plant response ratings, summarized in Tables 11 to 14, are based on a 0 to 100 scale where 0 is no effect and 100 is complete control. A dash (-) response means no test result. Test results are presented as a mean of 4 reps.

[9] = system: mare's tail (ERICA; Conyza canadensis); assay: as above; conditions: for Plant response rating (0 to 100 scale): Preemergence, ERICA
Description: as §3, §4

[10] = system: palmer amaranth (AMAPA; Amaranthus palmeri); assay: as above; conditions: for Plant response rating (0 to 100 scale): AMAPA
Description: as §3, §4

[11] = Preemergence, Cpd. No. 20 8 g a.i./ha alone
[12] = preemergence, Cpd. No. 20 16 g a.i./ha alone
[13] = preemergence, Cpd. No. 20 31 g a.i./ha alone
[14] = preemergence, Cpd. No. 20 62 g a.i./ha alone

Q: How did the “Plant response rating, Canada Thistle” value ([1]; 16 g ai/ha) turn out when `Cc1ccc2ccc(C)c(-c3c(O)c(Cl)nn(C)c3=O)c2c1` [Cpd. No. 20, 6-chloro-4-(2,7-dimethyl-1-naphthalenyl)-5-hydroxy-2-methyl-3(2H)-pyridazinone] was run?
A: 75

Q: And the “Plant response rating, Canada Thistle” value ([1]; 31 g ai/ha)?
A: 85

Q: And the “Plant response rating, Canada Thistle” value ([1]; 62 g ai/ha)?
A: 95

Q: What about the “Plant response rating, Canada Thistle” value ([1]; 125 g ai/ha) of the same molecule?
A: 95

Q: What about the “Plant response rating, Canarygrass” value ([2]; 16 g ai/ha) of the same molecule?
A: 10

Q: And the “Plant response rating, Canarygrass” value ([2]; 31 g ai/ha)?
A: 15

Q: And the “Plant response rating, Canarygrass” value ([2]; 62 g ai/ha)?
A: 20

Q: What about the “Plant response rating, Canarygrass” value ([2]; 125 g ai/ha) of the same molecule?
A: 35

Q: What about the “Plant response rating, Chickweed” value ([3]; 16 g ai/ha) of the same molecule?
A: 99

Q: What about the “Plant response rating, Chickweed” value ([3]; 31 g ai/ha) of the same molecule?
A: 99

Q: And the “Plant response rating, Chickweed” value ([3]; 62 g ai/ha)?
A: 100

Q: And the “Plant response rating, Chickweed” value ([3]; 125 g ai/ha)?
A: 100

Q: What about the “Plant response rating, Geranium, Cutleaf” value ([4]; 16 g ai/ha) of the same molecule?
A: 65

Q: What about the “Plant response rating, Geranium, Cutleaf” value ([4]; 31 g ai/ha) of the same molecule?
A: 75

Q: What about the “Plant response rating, Geranium, Cutleaf” value ([4]; 62 g ai/ha) of the same molecule?
A: 80

Q: What about the “Plant response rating, Geranium, Cutleaf” value ([4]; 125 g ai/ha) of the same molecule?
A: 85

Q: What about the “Plant response rating, Lambsquarters” value ([5]; 16 g ai/ha) of the same molecule?
A: 90

Q: And the “Plant response rating, Lambsquarters” value ([5]; 31 g ai/ha)?
A: 95

Q: What about the “Plant response rating, Lambsquarters” value ([5]; 62 g ai/ha) of the same molecule?
A: 90

Q: And the “Plant response rating, Lambsquarters” value ([5]; 125 g ai/ha)?
A: 98

Q: What about the “Plant response rating, Radish, Wild” value ([6]; 16 g ai/ha) of the same molecule?
A: 0

Q: What about the “Plant response rating, Radish, Wild” value ([6]; 31 g ai/ha) of the same molecule?
A: 0

Q: What about the “Plant response rating, Radish, Wild” value ([6]; 62 g ai/ha) of the same molecule?
A: 15

Q: And the “Plant response rating, Radish, Wild” value ([6]; 125 g ai/ha)?
A: 25

Q: And the “Plant response rating, Ryegrass, Italian” value ([7]; 16 g ai/ha)?
A: 65

Q: And the “Plant response rating, Ryegrass, Italian” value ([7]; 31 g ai/ha)?
A: 75

Q: And the “Plant response rating, Ryegrass, Italian” value ([7]; 62 g ai/ha)?
A: 80

Q: What about the “Plant response rating, Ryegrass, Italian” value ([7]; 125 g ai/ha) of the same molecule?
A: 90

Q: What about the “Plant response rating (0 to 100 scale)” value [8, 11] of the same molecule?
A: 0

Q: What about the “ZEAMD plant response rating, 0 to 100 scale” value (“ZEAMD plant response rating” below) ([8]; postemergence, 8 g a.i./ha) of the same molecule?
A: 0

Q: And the “ZEAMD plant response rating” value ([8]; postemergence, 16 g a.i./ha)?
A: 0

Q: And the “ZEAMD plant response rating” value ([8]; postemergence, 31 g a.i./ha)?
A: 0

Q: What about the “ZEAMD plant response rating” value ([8]; postemergence, 62 g a.i./ha) of the same molecule?
A: 0

Q: What about the “ZEAMD plant response rating” value ([8]; preemergence, 8 g a.i./ha) of the same molecule?
A: 0

Q: And the “ZEAMD plant response rating” value ([8]; preemergence, 16 g a.i./ha)?
A: 0

Q: What about the “ZEAMD plant response rating” value ([8]; preemergence, 31 g a.i./ha) of the same molecule?
A: 0

Q: What about the “ZEAMD plant response rating” value ([8]; preemergence, 62 g a.i./ha) of the same molecule?
A: 0

Q: What about the “Plant response rating (0 to 100 scale)” value [8, 12] of the same molecule?
A: 0

Q: And the “Plant response rating (0 to 100 scale)” value [8, 13]?
A: 0

Q: What about the “Plant response rating (0 to 100 scale)” value [8, 14] of the same molecule?
A: 0

Q: And the “Plant response rating (0 to 100 scale)” value ([9]; Cpd. No. 20 8 g a.i./ha alone)?
A: 93

Q: And the “Plant response rating (0 to 100 scale)” value ([9]; Cpd. No. 20 16 g a.i./ha alone)?
A: 100

Q: And the “Plant response rating (0 to 100 scale)” value ([9]; Cpd. No. 20 31 g a.i./ha alone)?
A: 100

Q: What about the “Plant response rating (0 to 100 scale)” value ([9]; Cpd. No. 20 62 g a.i./ha alone) of the same molecule?
A: 100

Q: What about the “ERICA plant response rating, 0 to 100 scale” value (from here on “ERICA plant response rating”) ([9]; postemergence, 8 g a.i./ha) of the same molecule?
A: 85

Q: What about the “ERICA plant response rating” value ([9]; postemergence, 16 g a.i./ha) of the same molecule?
A: 86

Q: What about the “ERICA plant response rating” value ([9]; postemergence, 31 g a.i./ha) of the same molecule?
A: 90

Q: And the “ERICA plant response rating” value ([9]; postemergence, 62 g a.i./ha)?
A: 90

Q: And the “ERICA plant response rating” value ([9]; preemergence, 8 g a.i./ha)?
A: 93

Q: And the “ERICA plant response rating” value ([9]; preemergence, 16 g a.i./ha)?
A: 100

Q: What about the “ERICA plant response rating” value ([9]; preemergence, 31 g a.i./ha) of the same molecule?
A: 100

Q: And the “ERICA plant response rating” value ([9]; preemergence, 62 g a.i./ha)?
A: 100

Q: And the “Plant response rating (0 to 100 scale)” value [10, 11]?
A: 23

Q: What about the “AMAPA plant response rating, 0 to 100 scale” value (shortened to “AMAPA plant response rating”) ([10]; postemergence, 8 g a.i./ha) of the same molecule?
A: 38

Q: What about the “AMAPA plant response rating” value ([10]; postemergence, 16 g a.i./ha) of the same molecule?
A: 40

Q: What about the “AMAPA plant response rating” value ([10]; postemergence, 31 g a.i./ha) of the same molecule?
A: 50

Q: And the “AMAPA plant response rating” value ([10]; postemergence, 62 g a.i./ha)?
A: 65

Q: What about the “AMAPA plant response rating” value ([10]; preemergence, 8 g a.i./ha) of the same molecule?
A: 23

Q: And the “AMAPA plant response rating” value ([10]; preemergence, 16 g a.i./ha)?
A: 44

Q: What about the “AMAPA plant response rating” value ([10]; preemergence, 31 g a.i./ha) of the same molecule?
A: 23

Q: What about the “AMAPA plant response rating” value ([10]; preemergence, 62 g a.i./ha) of the same molecule?
A: 61

Q: And the “Plant response rating (0 to 100 scale)” value [10, 12]?
A: 44

Q: What about the “Plant response rating (0 to 100 scale)” value [10, 13] of the same molecule?
A: 23

Q: What about the “Plant response rating (0 to 100 scale)” value [10, 14] of the same molecule?
A: 61
